Results published in paper PMC9646673, “A Novel, Orally Bioavailable, Small-Molecule Inhibitor of PCSK9 With Significant Cholesterol-Lowering Properties In Vivo” (Journal of Lipid Research, 2022).

Legend:
APOE∗3-Leiden.CETP mice [1] = assay: First efficacy study (28 days): plasma lipids; assay type: in vivo, mouse; settings: 30 and 50 mg/kg BID PO, 28 days
Text: (§1) Animal experiments were approved by the governmental central committee on animal experiments (AVD5010020172064) and TNO’s animal welfare body (TNO-471 and TNO-482). Female APOE∗3-Leiden.CETP transgenic mice (11–16 weeks of age) were bred at the animal facility of TNO-InnoSer (Leiden, The Netherlands). Female animals were used in this study as they are more responsive to dietary cholesterol and fat than males and therefore typically develop atherosclerosis more rapidly than male APOE∗3-Leiden and APOE∗3-Leiden.CETP mice on cholesterol-containing diets ([33], [34]). Although measurements of atherosclerosis were not included as part of the present study, females were used with the prospect in mind that atherosclerosis studies will follow. The mice were housed under standard conditions that included 12 h light-dark cycles and access to a WTD and sterilized tap water ad libitum. Body weight, food intake, and clinical signs of behavior were monitored throughout the studies. […] Time t = 0 (weeks) was designated as the time at which mice were matched into groups after the 3-week run-in period in each efficacy study.
(§2) Treatment times were around 8:00 am and 4:00 pm each day. Throughout the in-life phase of the study, body weight and food intake (per cage) were measured at regular predetermined intervals while blood samples were collected every 7 days. The last gavage was administered on day 27. On day 28, the mice were sacrificed by CO2 asphyxiation, EDTA-plasma was obtained via heart puncture, and the liver was weighed and collected. Throughout the study, plasma cholesterol, triglycerides, HDL-C, lipoprotein profiles, PCSK9 expression levels, aspartate transaminase levels (AST), and alanine transaminase levels (ALT) were measured as described below.
(§3) In both studies, blood samples were collected at weekly intervals via tail vein sampling after fasting the mice for 4 h. Blood samples were centrifugated (4500 g at 4°C), and the plasma was collected for the following analyses. Total plasma cholesterol levels were determined using a Cholesterol CHOD-PAP kit according to the manufacturer’s instructions. Plasma HDL-C levels were determined by first precipitating apoB-containing lipids using PEG 6000/glycine and then utilizing the Cholesterol CHOD-PAP kit ([35]). Non-HDL-C levels were determined by subtracting HDL-C levels from total cholesterol levels ([32]). Group-pooled lipoprotein profiles were determined by FPLC analysis using an AKTApurifier 10 FPLC system (GE Healthcare, Chicago, IL). Plasma PCSK9 levels were determined using a Mouse PCSK9 Quantikine ELISA kit as per the manufacturer’s protocol. ALT and AST levels of group-pooled samples were measured using the Roche Reflotron Plus System (Mannheim, Germany).

APOE∗3-Leiden.CETP mice [2] = assay: First efficacy study: body weight, food intake, plasma AST and ALT; assay type: in vivo, mouse; set-up: Body weight (mean ± SD) / Food intake (mean ± SD): unit not given here; settings: for Plasma ALT / Plasma AST: group-pooled
Text: as §1, §2, §3

[3] = 30 mg/kg BID PO, day 0 (baseline)
[4] = 50 mg/kg BID PO, day 0 (baseline)

Cc1cn(-c2cc(CN3CCC[C@H](N)C3)cc(NC(=O)c3cc(-c4ccccc4)ccn3)c2)cn1 [NYX-PCSK9i]
HDL-C levels (APOE∗3-Leiden.CETP mice [1]): no consistent reduction in HDL-C levels | Mean plasma triglyceride levels (APOE∗3-Leiden.CETP mice [1]): essentially unchanged | Body weight (mean ± SD) (APOE∗3-Leiden.CETP mice [2]; [3]): 21.9 ± 1.3 | Food intake (mean ± SD) (APOE∗3-Leiden.CETP mice [2]; [3]): 3.3 ± 0.3 | Body weight (mean ± SD) (APOE∗3-Leiden.CETP mice [2]; 30 mg/kg BID PO, day 7): 22.0 ± 1.6 | Food intake (mean ± SD) (APOE∗3-Leiden.CETP mice [2]; 30 mg/kg BID PO, day 7): 2.7 ± 0.3 | Food intake (mean ± SD) (APOE∗3-Leiden.CETP mice [2]; 30 mg/kg BID PO, day 14): 2.6 ± 0.6 | Food intake (mean ± SD) (APOE∗3-Leiden.CETP mice [2]; 30 mg/kg BID PO, day 21): 2.4 ± 0.2 | Body weight (mean ± SD) (APOE∗3-Leiden.CETP mice [2]; 30 mg/kg BID PO, day 28): 22.0 ± 1.1 | Food intake (mean ± SD) (APOE∗3-Leiden.CETP mice [2]; 30 mg/kg BID PO, day 28): 3.0 ± 0.1 | Food intake (mean ± SD) (APOE∗3-Leiden.CETP mice [2]; [4]): 3.3 ± 0.3 | Body weight (mean ± SD) (APOE∗3-Leiden.CETP mice [2]; 50 mg/kg BID PO, day 7): 21.8 ± 1.3 | Food intake (mean ± SD) (APOE∗3-Leiden.CETP mice [2]; 50 mg/kg BID PO, day 7): 2.6 ± 0.0 | Body weight (mean ± SD) (APOE∗3-Leiden.CETP mice [2]; 50 mg/kg BID PO, day 14): 21.8 ± 1.1 | Food intake (mean ± SD) (APOE∗3-Leiden.CETP mice [2]; 50 mg/kg BID PO, day 14): 2.9 ± 0.0 | Body weight (mean ± SD) (APOE∗3-Leiden.CETP mice [2]; 50 mg/kg BID PO, day 21): 21.5 ± 1.4 | Food intake (mean ± SD) (APOE∗3-Leiden.CETP mice [2]; 50 mg/kg BID PO, day 21): 2.7 ± 0.0 | Body weight (mean ± SD) (APOE∗3-Leiden.CETP mice [2]; 50 mg/kg BID PO, day 28): 21.6 ± 1.1 | Food intake (mean ± SD) (APOE∗3-Leiden.CETP mice [2]; 50 mg/kg BID PO, day 28): 2.7 ± 0.1 | plasma levels of the liver enzymes AST and ALT compared to vehicle (APOE∗3-Leiden.CETP mice [2]; 30 and 50 mg/kg BID PO, 28 days): remained stable | Plasma ALT (APOE∗3-Leiden.CETP mice [2]; [3]): 76.8 U/L | Plasma AST (APOE∗3-Leiden.CETP mice [2]; [3]): 185.2 U/L | Plasma ALT (APOE∗3-Leiden.CETP mice [2]; 30 mg/kg BID PO, day 7): 69.6 U/L | Plasma AST (APOE∗3-Leiden.CETP mice [2]; 30 mg/kg BID PO, day 7): 175.2 U/L | Plasma ALT (APOE∗3-Leiden.CETP mice [2]; 30 mg/kg BID PO, day 14): 70.0 U/L | Plasma AST (APOE∗3-Leiden.CETP mice [2]; 30 mg/kg BID PO, day 14): 158.8 U/L | Plasma ALT (APOE∗3-Leiden.CETP mice [2]; 30 mg/kg BID PO, day 21): 55.6 U/L | Plasma AST (APOE∗3-Leiden.CETP mice [2]; 30 mg/kg BID PO, day 21): 156.8 U/L | Plasma ALT (APOE∗3-Leiden.CETP mice [2]; 30 mg/kg BID PO, day 28): 35.6 U/L | Plasma AST (APOE∗3-Leiden.CETP mice [2]; 30 mg/kg BID PO, day 28): 84 U/L | Plasma ALT (APOE∗3-Leiden.CETP mice [2]; [4]): 70.0 U/L | Plasma AST (APOE∗3-Leiden.CETP mice [2]; [4]): 170.8 U/L | Plasma ALT (APOE∗3-Leiden.CETP mice [2]; 50 mg/kg BID PO, day 7): 74.8 U/L | Plasma AST (APOE∗3-Leiden.CETP mice [2]; 50 mg/kg BID PO, day 7): 181.2 U/L | Plasma ALT (APOE∗3-Leiden.CETP mice [2]; 50 mg/kg BID PO, day 14): 56 U/L | Plasma AST (APOE∗3-Leiden.CETP mice [2]; 50 mg/kg BID PO, day 14): 147.6 U/L | Plasma ALT (APOE∗3-Leiden.CETP mice [2]; 50 mg/kg BID PO, day 21): 47.6 U/L | Plasma AST (APOE∗3-Leiden.CETP mice [2]; 50 mg/kg BID PO, day 21): 120.4 U/L | Plasma ALT (APOE∗3-Leiden.CETP mice [2]; 50 mg/kg BID PO, day 28): 38 U/L | Plasma AST (APOE∗3-Leiden.CETP mice [2]; 50 mg/kg BID PO, day 28): 107 U/L
